In patent publication US5716964A, “Tetrazolyl substituted imidazo[1,2-a]pyridinylalkyl compounds for treatment of neurotoxic injury” (G.D. Searle & Co., priority 1995, dated 1998):
Structures can show the parent of a compound that is named as a salt. Blank lines part the entries; values can stand above or below the compound they belong to.

Tests used:
NMDA = details: Murphy et al. 1987; cited from earlier work
mice (motor function) = experiment: Inverted screen test for motor impairment; type: in vivo, mouse (CD-1)
Excerpt: (§1) 6, 351-353 (1977)]. […] The screens were then slowly inverted. […] The current was held constant at 15 mA. […] There were 10 mice in each treatment group.

[1] = system: mice (tonic hindlimb extensor seizures); experiment: Anticonvulsant assay (electroconvulsive shock, tonic hindlimb extensor seizures); type: in vivo, mouse (CD-1); details: s.c., 30 min prior to ECS
Excerpt: as §1

[2] = system: Mongolian gerbils, CA1 region of the hippocampus; experiment: Forebrain ischemia assay (bilateral carotid occlusion, CA1 hippocampal neuron count); type: in vivo, Mongolian gerbil; details: vs control, Mann-Whitney U test
Procedure: This assay was used to determine the extent of protection afforded by compound of the invention to neural brain cells subjected to ischemic conditions. Male Mongolian gerbils, 50-70 gm, were used as subjects. Compound No. 7 (30 mg/kg) was injected i.p. 30 minutes prior to carotid occlusion into 6 gerbils […]. In preparation for surgical procedures, the animals were lightly anesthetized with methoxyflurane and placed upside down on a heated pad with their snout within a nosecone. A 70:30 mixture of nitrous oxide and oxygen containing 0.5% halothane was circulated through the nosecone to provide continuous anesthesia throughout the surgical procedure. A midline incision was made in the neck and the carotid arteries were exposed. A length of suture thread was placed under each carotid. […] Quantification of the resulting lesion is made by counting the pyramidal cell somata in a 0.5 mm length of CAl of the hippocampus on the section corresponding to P 1.7 mm in the gerbil brain atlas.
Normal cell count in this region of the hippocampus in unoperated gerbils is 146±2. The effects of compound of Ex. #7 were assessed by comparing the number of neural cells found in the hippocampus of subjects treated with Ex. #7 compound with the cell number found in the appropriate control groups. […]

[3] = system: cGMP levels in cerebellum; experiment: Effect on cGMP levels in cerebellum; type: in vivo, mouse (Swiss-Webster); details: s.c.
Procedure: The purpose of this assay is to determine the extent of in vivo bioavailability and the potency as an NMDA antagonist of compound of the invention as compared to known NMDA antagonists, namely, 3(2-carboxypiperizine-4-yl)propyl-1-phosphonic acid (CPP~ and cis-4-phosphonomethyl-2-piperidinecarboxylic acid (CGS 19755). Male Swiss-Webster mice (17-24 g were injected sub-cutaneously (s.c.) with compound of the invention and the known NMDA antagonist standards 30 minutes prior to sacrifice by focussed microwave irradiation. Groups consisted of 7-10 mice. Compounds of Ex. #7 was dissolved in isotonic saline and all compounds were administered in a volume of 0.2 ml per mouse. Cerebella samples were extracted in IN HCl. Hydrochloric acid in extracts of the cerebellum were freeze-dried for assay of cGMP with a commercial RIA kit (NEN). Statistics (Dunett's t-test) were performed as described previously [P. L. Wood et al., Neurochem, 19, 975-982 (1980)]. ED50 values were calculated from log-logit transformation of the dose-response data.

AMPA (QUIS) receptor = experiment: [3H]AMPA (QUIS) binding assay; details: [3H]AMPA 10 nM, 100 mM KSCN, SPM, 0-4 °C, 10 min; read-out: Ki IC50 Binding, AMPA
Procedure: Synaptic plasma membranes (SPM) were prepared as previously described [Monahan, J. B. and Michel, J., "Identification and Characterization of an N-methyl-D-aspartate-specific L[^3 H]glutamate Recognition Site in Synaptic Plasma Membranes, J. Neurochem., 48, 1699-1708 (1987)]. The SPM were stored at a concentration of 10-15 mg/ml in 0.32M sucrose, 0.5 mM EDTA, 1mM MgSO4, 5 mM Tris/SO4, pH 7.4, under liquid nitrogen. The identity and purity of the subcellular fractions were confirmed by both electron microscopy and marker enzymes. Protein concentrations were determined by using a modification of the method of Lowry [Ohnishi, S. T. and Barr, J. K., "A Simplified Method of Quantitating Proteins Using the Biuret and Phenol Reagents", Anal. Biochem., 86, 193-197 (1978)]. The SPM were treated identically for the [^3 H]AMPA (QUIS), [^3 H]kainate and sodium-dependent L-[^3 H]-glumatate binding assays. The SPM were thawed at room temperature, diluted twenty-fold with 50 mM Tris/acetate, pH 7.4, incubated at 37° C. for 30 minutes, and centrifuged at 100,000 g for 15 minutes. The dilution, incubation, and centrifugation was repeated a total of three times. Prior to use in the NMDA specific L-[^3 H]-glutamate binding assay the SPM were thawed, diluted twenty fold with 50 mM Tris/acetate, pH 7.4 containing 0.04% (v/v) Triton X-100, incubated for 30 minutes at 37° C. and centrifuged as described above. The Triton X-100 treated membranes were washed with 50 mM Tris/acetate, pH 7.4 and centrifuged at 100,000 g for 15 minutes a total of four times. […] The basic procedure for the receptor subclass binding assays was similar. This general method involved adding the radioligand (12.5 nM L-[^3 H]glutamate; 0.5 nM [^3 H]kainate or 10 nM [^3 H]AMPA) to the appropriate concentration of the test compound and initiating the assay by the addition of ice cold synaptic plasma membranes (0.2-0.45 mg). The binding assays were performed in 1.5 mL centrifuge tubes with the total volume adjusted to 1.0 mL. Additions of test compounds were made in 50 mM Tris/acetate, pH 7.4 and incubations were carried out at 0°-4° C. The incubation time for the NMDA and the AMPA binding assays was 10 minutes, for the kainate binding assay 60 minutes and for the sodium-dependent glutamate binding assay 15 minutes. The AMPA binding assay contained 100 mM KSCN and the sodium-dependent glutamate binding assay contained 150 mM sodium acetate in addition to the previously described reagents. To terminate the incubation, the samples were centrifuged for 15 minutes at 12,000 g and 4° C. in a Beckman Microfuge 12. The supernatant was aspirated and the pelleted membranes dissolved in Beckman BTS-450 tissue solubilizer for a minimum of 6 hours at room temperature. Beckman MP scintillation cocktail containing 7 mL/l acetic acid was then added and the samples counted on a Beckman LS 5800 or 3801 liquid scintillation counter with automatic corrections for quenching and counting efficiency. Nonspecific binding was defined as the residual binding in the presence of either excess L-glutamate (0.1-0.4 mM), kainate (0.01 mM), or NMDA (0.5 mM), and was 15-25% of the total binding in the NMDA binding assay, 19-27% in the AMPA binding assay, 20-30% in the kainate binding assay and 10-15% in the sodium-dependent binding assay. Radioligand binding to the synaptic plasma membranes was analyzed using Scatchard and Hill transformations and the Ki values of the compounds determined using logit-log transformations. Calculations and regression analysis were performed using templates developed for Lotus 1, 2, 3 as previously described [Pullan, L. M. "Automated Radioligand Receptor Binding Analysis with Templates for Lotus", Computer Appln. Biosci., 3, 131 (1987)]. Binding results are reported in Table I for example compounds of the invention.

[4] = system: TCP (1-[1-(2-thienyl)cyclohexyl]piperidine) binding in rat brain synaptic membranes; experiment: TCP modulation assay ([3H]TCP binding); details: printed in the column TCP Ki IC50
Procedure: The effect on the TCP (1-[1-(2-thienyl)cyclohexyl]piperidine) binding was measured in rat brain synaptic membranes (SPM) prepared as previously described [J. B. Monahan & J. Michel; J. Neurochem. 48:1699-1708 (1987)]. Prior to their use in the binding assay, frozen SPM were thawed, diluted twenty fold with 50 mM Tris/acetate (pH 7.4 containing 0.04% (v/v) Triton X-100), incubated for 30 min. at 37° C. and centrifuged at 95,000×g for 15 min. The Triton X-100 treated SPM were washed with 5 mM Tris/HCl, pH 7.4 and centrifuged a total of six times. The compound of Example #7 was incubated at different concentrations with SPM (0.2-0.4 mg protein) and 2 nM tritiated TCP, in a total volume of 0.5 ml of 5 mM Tris/HCl buffer pH 7.4 at 25° C. for 60 min. The samples were filtered through glass fiber filters (Schleicher & Schuell #32) which have been pretreated with 0.05% (v/v) polyethylenimine, washed 4 times with 2 ml of ice-cold 5 mM Tris/HCl buffer, and then counted on a Beckman LS 5800 liquid scintillation counter with automatic corrections for quenching and counting efficiency. Inhibition of TCP binding was measured as a decrease in the binding in the presence of 0.05 mM L-glutamate. Non-specific binding was defined as the residual binding in the presence of […] phencyclidine.

- Ki (AMPA (QUIS) receptor): > 300 µM
SMILES: O=C(O)c1cn2ccc(CP(=O)(O)O)cc2n1 [Example 18, 7-(phosphonomethyl)imidazo[1,2-a]pyridine-2-carboxylic acid]

- Ki (AMPA (QUIS) receptor): > 300 µM
SMILES: O=C(O)c1cn2cccc(CP(=O)(O)O)c2n1 [Example 23, 8-(phosphonomethyl)imidazo[1,2-a]pyridine-2-carboxylic acid]

- Ki (AMPA (QUIS) receptor): > 300 µM
SMILES: O=C(O)c1cn2c(CP(=O)(O)O)c(Cl)ccc2n1 [Example 30, 6-chloro-5-(phosphonomethyl)imidazo[1,2-a]pyridine-2-carboxylic acid]

- TCP binding, result in words [4]: antag.
- Ki (AMPA (QUIS) receptor): > 300 µM
SMILES: O=C(O)c1cn2c(C(O)P(=O)(O)O)cccc2n1 (stereo not drawn) [Example 57, 5-(hydroxyphosphonomethyl)imidazo[1,2-a]pyridine-2-carboxylic acid, monohydrochloride]

Second part, the compound before the results:

SMILES: O=C(O)C1CN(CCCP(=O)(O)O)CCN1 (stereo not drawn) [CPP, 3-(2-carboxypiperazin-4-yl)propyl-1phosphonic acid]
- NMDA antagonism, in words (NMDA): potent and selective NMDA antagonist

SMILES: O=C(O)c1cn2c(CP(=O)(O)O)cccc2n1 [Example 7, 5-(phosphonomethyl)imidazo[1,2-a]pyridine-2-carboxylic acid]
- Exhibiting Motor Impairments (mice (motor function); 10 mg/kg s.c.): 30 % of Mice
- Exhibiting Motor Impairments (mice (motor function); 32 mg/kg s.c.): 50 % of Mice
- Exhibiting Motor Impairments (mice (motor function); 56 mg/kg s.c.): 70 % of Mice
- Exhibiting Motor Impairments (mice (motor function); 100 mg/kg s.c.): 90 % of Mice
- impairment of motor function, in words (mice (motor function); s.c., inverted screen): impaired motor function in a similar dose range
- protection against tonic hindlimb extensor seizures, in words [1]: protected against tonic hindlimb extensor seizures in a dose-dependent fashion
- hippocampal cell loss after ischemia, in words [2]: significantly reduced
- brain bioavailability (decrease of cGMP in mouse cerebellum), in words [3]: brain bioavailable
- potency compared with CPP, in words ([3]; decrease in cerebellar cGMP): in the same range of potency as the known NMDA antagonist CPP
- Ki (AMPA (QUIS) receptor): > 300 µM

SMILES: O=C(O)c1cn2cc(CP(=O)(O)O)ccc2n1 [Example 13, 6-(phosphonomethyl)imidazo[1,2-a]pyridine-2-carboxylic acid]
- Ki (AMPA (QUIS) receptor): > 300 µM

SMILES: Cc1c(C(=O)O)nc2c(CP(=O)(O)O)cccn12 [Example 67, 3-methyl-8-(phosphonomethyl)imidazo[1,2-a]pyridine-2-carboxylic acid, monohydrochloride]
- Ki (AMPA (QUIS) receptor): > 300 µM
